In ChEMBL document CHEMBL1130754, “Structure activity relationship study of known inhibitors of the enzyme 5 alpha-reductase (5AR)” (Bioorg Med Chem Lett, 1998):

What was measured:
[1] = molecular target: T1, Steroid 5-alpha-reductase (Rattus norvegicus, UniProt P24008+P31214); assay: Compound was tested for the inhibitory activity against Steroid 5-alpha-reductase in rat
T1 sequence (P24008 whole entry): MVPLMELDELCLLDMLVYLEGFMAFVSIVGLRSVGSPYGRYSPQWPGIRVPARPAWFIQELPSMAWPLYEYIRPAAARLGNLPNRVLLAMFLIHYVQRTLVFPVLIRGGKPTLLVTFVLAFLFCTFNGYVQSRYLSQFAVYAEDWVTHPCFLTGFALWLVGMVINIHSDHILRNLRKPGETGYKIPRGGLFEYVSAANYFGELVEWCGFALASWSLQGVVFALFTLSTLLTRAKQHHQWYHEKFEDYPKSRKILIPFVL
T1 sequence (P31214 whole entry): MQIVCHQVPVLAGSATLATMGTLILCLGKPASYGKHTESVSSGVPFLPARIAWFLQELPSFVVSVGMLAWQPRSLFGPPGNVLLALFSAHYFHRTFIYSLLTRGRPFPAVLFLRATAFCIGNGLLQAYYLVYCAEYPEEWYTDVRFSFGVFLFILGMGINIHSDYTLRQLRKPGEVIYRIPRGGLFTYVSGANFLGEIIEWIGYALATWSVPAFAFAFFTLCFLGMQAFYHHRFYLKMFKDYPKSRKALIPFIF

[2] = molecular target: T2, 3-oxo-5-alpha-steroid 4-dehydrogenase 1 (Rattus norvegicus, UniProt P24008); assay: Compound was tested for the inhibitory activity against Steroid 5-alpha-reductase type 1 in rat
T2 sequence (P24008 whole entry): T1 sequence (P24008 whole entry)

Row | Compound | IC50 [1] [nM] | IC50 [2] [nM]
1 | C[C@]12CCC(=O)C=C1CC[C@@H]1[C@@H]2CC[C@]2(C)C(c3cccnc3)=CC[C@@H]12 | 10000 | 
2 | CCCCCCCCNC(=O)[C@H]1CCC2C3CCC4NC(=O)CC[C@]4(C)C3CC[C@@]21C (some centres undefined) | 0.13 | 
3 | CC(C)(C)NC(=O)[C@H]1CCC2C3CCC4NC(=O)CC[C@]4(C)C3CC[C@@]21C (some centres undefined) | 6.3 | 
4 | CC(C)(C)NC(=O)[C@H]1CC[C@H]2[C@@H]3CC[C@H]4NC(=O)C=C[C@]4(C)[C@H]3CC[C@]12C [FINASTERIDE] |  | 4.2
